Here are results for 3 molecules from article PMC11077991, “The small molecule CBR-5884 inhibits the Candida albicans phosphatidylserine synthase” (mBio, 2024).

Several values for one entry are separate records, joined by “and”; a condition that tells them apart may be missing. Identical values can stand only once. Like-named read-outs stand apart in the source and are kept apart here.

The target of test [1] is purified C. albicans Cho1 (phosphatidylserine synthase) (Candida albicans, UniProt A0A1D8PF32). In words: malachite-green-based nucleotidase-coupled assay, dose-response. The test is classed as biochemical. The following applies: top 200 µM, 3 h at 30°C, three replicates. Here is the method: A malachite-green-based nucleotidase-coupled assay was used to measure the PS synthesis activity of Cho1 (Fig. 1B). Cho1 catalyzes the production of PS and cytidylmonophosphate (CMP) from CDP-DAG and serine, where CMP can then be recognized and cleaved by the nucleotidase CD73 to release inorganic phosphate, which is subsequently detected by malachite green. To test whether this malachite-green-based assay can reflect Cho1 activity, a time-course test was performed with a fixed amount of purified Cho1 in the presence of substrates (Fig. 1C).
Sequence of purified C. albicans Cho1 (phosphatidylserine synthase) (A0A1D8PF32 entry or part of it): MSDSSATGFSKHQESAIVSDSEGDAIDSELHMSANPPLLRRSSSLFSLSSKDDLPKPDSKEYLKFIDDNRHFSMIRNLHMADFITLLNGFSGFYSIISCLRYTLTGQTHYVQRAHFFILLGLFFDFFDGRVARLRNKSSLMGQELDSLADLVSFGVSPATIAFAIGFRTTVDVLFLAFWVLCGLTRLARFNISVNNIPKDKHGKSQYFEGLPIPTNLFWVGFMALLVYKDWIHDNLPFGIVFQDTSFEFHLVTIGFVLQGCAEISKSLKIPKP
The bioactives library was purchased from Selleck in 2014, and the remaining libraries (anti-infectives and mechanism of action libraries) were assembled from compounds available at the Chemical Biology and Therapeutics Department at St. Jude Children’s Research Hospital. The anti-infectives library contains a curated list of antimicrobials and antiviral agents ([95]). The bioactive library has a compilation of compounds acquired from commercial sources and external academic collaborators. The mechanism of action set is a dynamic set of well-annotated compounds with comprehensive coverage of human targets and mechanisms of action ([96]). All compounds were dissolved in DMSO and 100 nL was transferred to a 384-well clear bottom plate (ThermoFisher Scientific, cat# 265203) using a Beckman Echo 650 acoustic liquid handler. Equal volumes of either the selective CD73 nucleotidase inhibitor AB680 at a final concentration of 1 µM (MedChemExpress, cat# HY-125286) or DMSO were used as positive and negative controls, respectively. A total of 30–35 ng of purified Cho1 protein was used in each reaction in 50 mM Tris-HCl (pH 8.0) for primary screening, combined with 100 µM CDP-DAG (Avanti, cat# 870510), 5 mM serine, 0.4 ng CD73 nucleotidase (R&D systems, cat# EA002), 1 mM MnCl2, 0.1% APX-100, and 0.1% digitonin, in a total volume of 10 µL. Counter screen reactions were set up by replacing only the purified Cho1 with 150 µM CMP, with all other components remaining constant. The 10 µL primary and counter screening reactions were delivered to each well of 384-well assay plates containing pre-aliquoted compounds from the library using a Multidrop Combi (ThermoFisher Scientific). […] After media transfer, assay plates were incubated for 3 h at 30°C. Plates were then removed and 32 µL of malachite green mixture [6 µL malachite A (2%, wt/vol, ammonium molybdate and 20%, vol/vol, sulfuric acid in H2O) +20 µL H2O + 6 µL malachite B (0.1%, wt/vol, malachite green oxalate and 0.5%, wt/vol, polyvinyl alcohol in H2O)] were added to each well via a MultiDrop Combi and incubated for an additional 10 min at room temperature. After incubation, plates were briefly centrifuged at 500 × g and absorbance at 620 nm was then measured using a Cytation7 plate reader (Biotek, Winooski, VT). Raw absorbance values of the compounds were normalized to DMSO (0% inhibition) and AB680 (100% inhibition) from both primary and counter screens, and % Δinhibition was calculated by […]. Z-factors for each plate were calculated using the in-house program RISE (Robust Investigation of Screening Experiments). All non-PAINs compounds that had >80% Δinhibition progressed to dose-response testing (82 total compounds). Dose-response experiments were performed in triplicate as described above using a 10-point, threefold serial dilution with the top concentration for each compound tested being 200 µM (range: 0.010161–200 μM). The absorbance at 620 nm was then measured using a PHERAstar FS multilabel reader (BMG, Cary, NC). Raw values were once again normalized to DMSO (0% inhibition) and AB680 (100% inhibition) and Z-factors for each plate were calculated using RISE. […]

Test [2] has as its system crude membrane containing Cho1. In words: radioactive PS synthase assay on crude membrane containing Cho1. Format: biochemical, Candida albicans. As to conditions: compounds at 1 mM. On the procedure: Enzymatic activity of Cho1 in the presence of the compounds was measured using the radioactive PS synthase assay. For purified Cho1, the procedure was fully described in reference ([33]). Briefly, 1–2 μg of purified Cho1 was added to the reaction containing 50 mM Tris-HCl (pH 8.0), 1 mM MnCl2, 0.1% Triton X-100, 0.04% digitonin, 0.1 mM (4.7 mol %), 16:0 CDP-DAG (Avanti, cat# 870510), and 0.5 mM L-serine [spiked with 5% (by volume) L-[^3H]-serine (15 Ci/mmol)] at a total volume of 100 µL, in the presence of 100 µM of each compound or equivalent DMSO solvent. The reaction was conducted at 30°C for 30 min, and [^3H]PS produced in the reaction was measured using a liquid scintillation counter. For crude membrane samples, crude membrane preps from wildtype and cho1ΔΔ strains were collected and assayed as described in reference ([33]) with the exception that 2 mM L-serine [spiked with 5% (by volume) L-[^3H]-serine (15 Ci/mmol)] was used in each reaction. A final concentration of 1 mM of each compound was used for the crude membrane samples.

[3] abbreviates: Best-fit IC50, inhibition of Cho1, 10-point dose-response.

Take `CCOC(=O)c1sc(NC(=O)c2ccco2)c(SC#N)c1C` [CBR-5884]: the half-maximal inhibitory concentration (IC50) in test [1] (setting [3]) is ≤ 20 µM and ~8.44 µM. In addition, the “PS production in native crude membranes” value in test [2] is on record as “decreased PS production”.

Take `O=C(C1CC1)N1CCN(Cn2sc3ccccc3c2=O)CC1` [LOC14]: the half-inhibitory concentration (IC50) in test [1] (10-point dose-response, read-out: Best-fit IC50, inhibition of Cho1) was about 75.5 µM. Moreover, the “PS production in native crude membranes” value in test [2] is given as “decreased PS production”.

With `O=c1c2ccccc2[se]n1-c1ccccc1` [Ebselen], the IC50 in test [1] (setting [3]) was ≤ 20 µM and ~11.1 µM and 11.1 µM. Moreover, the “PS production in native crude membranes” value in test [2] is on record as “decreased PS production”.

For orientation: IC50 means the point on the concentration scale where inhibition reaches its midpoint.
